biological target: SIK2 (Homo sapiens (Human), UniProt Q9H0K1); experiment: SIK2 Enzymatic Assay Version 2 (High ATP); assay type: biochemical; details: 3 mM ATP and 200 μM HDAC5tide final, ADP-Glo Max luminescence
In short: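 Run at room temperature; SIK2 enzyme at 6 nM (2× final) preincubated with compound 30 min before reaction. ADP formation detected by ADP-Glo Max (2 h reagent, 1 h detection) with luminescence read-out.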

Sequence of SIK2 (Q9H0K1 whole entry, species assumed): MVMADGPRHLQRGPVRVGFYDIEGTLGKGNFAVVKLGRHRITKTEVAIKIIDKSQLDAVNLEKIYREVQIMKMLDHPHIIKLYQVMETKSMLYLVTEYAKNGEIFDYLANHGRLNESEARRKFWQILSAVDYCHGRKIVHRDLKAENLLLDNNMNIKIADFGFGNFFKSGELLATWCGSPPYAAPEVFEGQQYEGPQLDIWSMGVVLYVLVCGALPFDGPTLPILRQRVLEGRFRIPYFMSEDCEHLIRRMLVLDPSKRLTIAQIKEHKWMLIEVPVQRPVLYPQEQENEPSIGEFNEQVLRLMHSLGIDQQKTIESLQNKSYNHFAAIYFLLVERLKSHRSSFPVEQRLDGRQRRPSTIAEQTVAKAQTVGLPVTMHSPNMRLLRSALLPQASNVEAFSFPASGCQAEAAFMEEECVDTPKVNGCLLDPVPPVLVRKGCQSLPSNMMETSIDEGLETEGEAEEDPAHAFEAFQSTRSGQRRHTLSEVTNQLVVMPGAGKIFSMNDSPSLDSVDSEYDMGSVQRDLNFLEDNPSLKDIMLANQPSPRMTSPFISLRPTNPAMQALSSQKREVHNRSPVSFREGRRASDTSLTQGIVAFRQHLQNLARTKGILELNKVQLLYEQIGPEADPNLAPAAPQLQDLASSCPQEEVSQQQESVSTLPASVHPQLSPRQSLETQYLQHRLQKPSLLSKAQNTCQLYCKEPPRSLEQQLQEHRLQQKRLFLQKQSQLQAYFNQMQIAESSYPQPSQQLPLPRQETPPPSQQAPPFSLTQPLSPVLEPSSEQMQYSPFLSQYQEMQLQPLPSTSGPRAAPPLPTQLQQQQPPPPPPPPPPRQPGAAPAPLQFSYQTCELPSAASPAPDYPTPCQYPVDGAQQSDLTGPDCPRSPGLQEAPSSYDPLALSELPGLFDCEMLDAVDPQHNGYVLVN

| IC50 [µM] | SMILES |
| --- | --- |
| 0.0122 | COC1(COc2noc(C)c2-c2ccn3nc(NC(=O)C4CC4)cc3c2)CNC1 [Example 76, N-[5-[3-[(3-methoxyazetidin-3-yl)methoxy]-5-methyl-isoxazol-4-yl]pyrazolo[1,5-a]pyridin-2-yl]cyclopropanecarboxamide] |
| 0.0031 | Cc1cnc(Nc2cc3cc(-c4c(CO[C@@H]5CN(C)C[C@@H]5C)cnn4C)ccn3n2)cn1 (relative stereo) [Example 380, CIS—*S, *S-5-[4-[(1,4-dimethylpyrrolidin-3-yl)oxymethyl]-2-methyl-pyrazol-3-yl]-N-(5-methylpyrazin-2-yl)pyrazolo[1,5-a]pyridin-2-amine] |
| 0.0018 | CCN1CC[C@@H]1COc1cnn(C(F)F)c1-c1ccn2nc(Nc3cncc(C)n3)cc2c1 [Example 482, 5-[2-(difluoromethyl)-4-[[(2R)-1-ethylazetidin-2-yl]methoxy]pyrazol-3-yl]-N-(6-methylpyrazin-2-yl)pyrazolo[1,5-a]pyridin-2-amine] |
| 0.174 | Cc1cc(Nc2cc3cc(-c4c(OC[C@]5(O)CCOC5)cnn4C)ccn3n2)nc(C)n1 (single isomer, unassigned) [Example 439, (*S)-3-[[5-[2-[(2,6-dimethylpyrimidin-4-yl)amino]pyrazolo[1,5-a]pyridin-5-yl]-1-methyl-pyrazol-4-yl]oxymethyl]tetrahydrofuran-3-ol] |
| 0.0011 | Cc1cc(Nc2cn3cc(-c4c(OC[C@H]5CCN5C)cnn4C)ccc3n2)nc(C)n1 [Example 485, N-(2,6-dimethylpyrimidin-4-yl)-6-[2-methyl-4-[[(2R)-1-methylazetidin-2-yl]methoxy]pyrazol-3-yl]imidazo[1,2-a]pyridin-2-amine] |
| 0.0751 | CN1CC[C@H](Oc2cnn(C)c2-c2ccn3nc(Nc4cnccn4)cc3c2)C1 [Example 450, 5-[2-methyl-4-[(3S)-1-methylpyrrolidin-3-yl]oxy-pyrazol-3-yl]-N-pyrazin-2-yl-pyrazolo[1,5-a]pyridin-2-amine] |
| 0.0023 | Cc1cc(Nc2cc3cc(-c4c(OC[C@H]5CCN5C)cnn4C)ccn3n2)nc2c1CCC2 [Example 136, N-(4-methyl-6,7-dihydro-5H-cyclopenta[b]pyridin-2-yl)-5-[2-methyl-4-[[(2R)-1-methylazetidin-2-yl]methoxy]pyrazol-3-yl]pyrazolo[1,5-a]pyridin-2-amine] |
| 0.0304 | CN1CC(C)(COc2cnn(C)c2-c2ccn3nc(NC(=O)C4CC4)cc3c2)C1 [Example 314, N-[5-[4-[(1,3-dimethylazetidin-3-yl)methoxy]-2-methyl-pyrazol-3-yl]pyrazolo[1,5-a]pyridin-2-yl]cyclopropanecarboxamide] |
| 0.69 | CN1CC2(CCOCC2)[C@H]1COc1cnn(C)c1-c1ccn2nc(NC(=O)C3CC3)cc2c1 (single isomer, unassigned) [Example 59, (*S)—N-[5-[2-methyl-4-[(2-methyl-7-oxa-2-azaspiro[3.5]nonan-3-yl)methoxy]pyrazol-3-yl]pyrazolo[1,5-a]pyridin-2-yl]cyclopropanecarboxamide] |
| 0.162 | CN1CC[C@H](Oc2cnn(C)c2-c2ccn3nc(Nc4cnc(C(F)(F)F)cn4)cc3c2)C1 [Example 453, 5-[2-methyl-4-[(3S)-1-methylpyrrolidin-3-yl]oxy-pyrazol-3-yl]-N-[5-(trifluoromethyl)pyrazin-2-yl]pyrazolo[1,5-a]pyridin-2-amine] |
| < 0.000847 | CCN1CC[C@@H]1COc1cnn(C)c1-c1ccn2nc(Nc3cnc(C)c(C)n3)cc2c1 [Example 22, (R)—N-(5,6-Dimethylpyrazin-2-yl)-5-(4-((1-ethylazetidin-2-yl)methoxy)-1-methyl-1H-pyrazol-5-yl)pyrazolo[1,5-a]pyridin-2-amine] |

| SMILES | IC50 [µM] |
| --- | --- |
| Cn1ncc(O[C@@H]2C[C@H]3COC[C@@H](C2)N3)c1-c1ccn2nc(NC(=O)C3CC3)cc2c1 [Example 43, exo-N-[5-[2-methyl-4-[[(1R,5S)-3-oxa-9-azabicyclo[3.3.1]nonan-7-yl]oxy]pyrazol-3-yl]pyrazolo[1,5-a]pyridin-2-yl]cyclopropanecarboxamide] | 0.0173 |
